{
  "source": "patent EP0333831B1",
  "about": "“USE OF METALLOPORPHYRINS TO REVERSE THE TOXIC EFFECT OF TUMOR THERAPY” (priority 1987, dated 1989)",
  "format_in_all_cases": "in vivo, Sprague-Dawley rats",
  "key": {"microsomal heme": {"tested_on": "microsomal heme", "experiment": "hepatic microsomal heme content in rats treated with doxorubicin, with or without SnPP", "method": "(§1) The efficacy of the products of the invention for their newly discovered utility was established by experiments with three groups of male Sprague-Dawley rats (males, 150-200 grams, 16 per group). The rats were maintained on ad lib water and powdered rat chow (Purina) during the experiments. Group A was untreated, Group B was treated subcutaneously with doxorubicin alone on day 0, and Group C was treated with SnPP one day prior to doxorubicin which was administered on day 0.\n(§2) The animals utilized in the tests were acclimated in metabolic cages maintained in a controlled environment with a 12h/12h light/dark cycle.\n(§3) The compositions for parenteral administration were freshly prepared for each injection by addition of 0.4 N NaOH (20% v/v) to prepare a solution at pH 12, adjusted to pH 7.5 with 1 NHCl and made to final volume with 0.9% saline. The dosage level per injection was 50 µmol/kg b.w. Control animals were administered an equivalent amount of saline.\n(§4) Animals were deprived of food but allowed free access to water for 16 hours prior to sacrifice. […] Cytochrome P-450 content was determined by the methods of Omura and Sato [J. Biol. Chem., 239: 2379 (1966) and 239: 2370 (1966)], and protein concentration by the method of Lowry et al [J. Biol. Chem., 193 265 (1951)] using crystalline bovine serum albumin as standard. […]"}, "hepatic heme oxygenase": {"tested_on": "hepatic heme oxygenase", "experiment": "hepatic heme oxygenase activity in rats treated with doxorubicin, with or without SnPP", "conditions": "SnPP (50 µmol/kg b.w.) one day prior to doxorubicin 10 mg/kg b.w.; compared to the group treated with doxorubicin alone", "method": "as §1, §2, §3, §4"}, "ALA synthetase": {"tested_on": "ALA synthetase", "experiment": "hepatic ALA synthetase activity in rats treated with doxorubicin, with or without SnPP", "conditions": "SnPP (50 µmol/kg b.w.) one day prior to doxorubicin 10 mg/kg b.w.; compared to the group treated with doxorubicin alone", "method": "as §1, §2, §3, §4"}, "cytochrome P-450": {"tested_on": "cytochrome P-450", "experiment": "hepatic microsomal cytochrome P-450 content in rats treated with doxorubicin, with or without SnPP", "method": "as §1, §2, §3, §4"}, "heme metabolism": {"tested_on": "heme metabolism", "method": "as §1\nIt will be seen that the increase in heme oxygenase activity and decrease in ALA synthetase activity and microsomal content of cytochrome P-450 were at a maximum on day 2 and returned to normal by day 10.\nas §2, §3\nAnimals were deprived of food but allowed free access to water for 16 hours prior to sacrifice. Livers were perfused in situ with ice-cold saline and homogenized in tris-HCL (0.01 M, pH 7.4) buffer containing sucrose (0.25 M). Homogenates (25% w/v) were centrifuged at 9000 g for 20 min, and the resulting mitochondrial pellet was used for the assay of ALA-synthetase activity. The 9000 xg supernatant was centrifuged at 105,000 xg for 60 min in a Beckman L5-50 ultracentrifuge. The microsomal pellet was resuspended in a minimum volume of potassium phosphate buffer (0.1 M, pH 7.4) and the cytosol was used as a source of biliverdin reductase. Cytochrome P-450 content was determined by the methods of Omura and Sato [J. Biol. Chem., 239: 2379 (1966) and 239: 2370 (1966)], and protein concentration by the method of Lowry et al [J. Biol. Chem., 193 265 (1951)] using crystalline bovine serum albumin as standard. […]"}, "[1]": {"conditions": "SnPP one day prior to doxorubicin 10 mg/kg b.w., compared to the untreated group"}, "[2]": {"conditions": "doxorubicin 10 mg/kg b.w. subcutaneous, measured 2 days after administration, vs untreated, P < 0.05"}},
  "data": [
    {"compound": "tin protoporphyrin-IX [SnPP]", "values": [
      {"measurement": "levels of microsomal heme", "setting": "microsomal heme; [1]", "result": "substantially identical to those in the untreated group"},
      {"measurement": "decrease in hepatic heme oxygenase activity", "setting": "hepatic heme oxygenase", "result": 92, "unit": "%"},
      {"measurement": "increase in hepatic ALA-synthetase activity", "setting": "ALA synthetase", "result": 35, "unit": "%"},
      {"measurement": "levels of hepatic cytochrome P-450", "setting": "cytochrome P-450; [1]", "result": "substantially identical to those in the untreated group"},
      {"measurement": "prevention of doxorubicin-induced variations in heme metabolism", "setting": "heme metabolism; metalloporphyrin administered one day prior to doxorubicin", "result": "prevented the occurrence of these variations in heme metabolism"}
    ]},
    {"compound": "COc1cccc2c1C(=O)c1c(O)c3c(c(O)c1C2=O)C[C@@](O)(C(=O)CO)C[C@@H]3O[C@H]1C[C@H](N)[C@H](O)[C@H](C)O1", "note": "[doxorubicin, reference compound]", "values": [
      {"measurement": "decrease in the microsomal content of heme", "setting": "microsomal heme; [2]", "result": 45, "unit": "%"},
      {"measurement": "decrease in the microsomal content of cytochrome P-450", "setting": "cytochrome P-450; [2]", "result": 18, "unit": "%"},
      {"measurement": "time of maximum increase in heme oxygenase activity and decrease in ALA synthetase activity and microsomal content of cytochrome P-450", "setting": "heme metabolism; rat, in vivo", "result": 2, "unit": "days"},
      {"measurement": "time of return to normal of heme oxygenase activity, ALA synthetase activity and microsomal cytochrome P-450", "setting": "heme metabolism; rat, in vivo", "result": "≤ 10", "unit": "days"}
    ]}
  ]
}
